Test results published in patent US5192799A, “Coumaran group containing amine compounds and their acid addition salts and quaternary ammonium salts and the use thereof as anti arrhythmic agents and as psychotropic agents” (Mitsui Petrochemical Industries, Ltd., priority 1987, dated 1993).
Like-named read-outs stand apart in the source and are kept apart here.

Tests used:
dopamine 2 receptor = target: T1, dopamine 2 receptor (Rattus norvegicus, UniProt P61169); experiment: [3H]spiperone binding assay (affinity for dopamine 2 receptor); parameters: species or system Wistar-strain male rat; conditions: rat striatal membranes, 0.5 nM [3H] spiperone, 37° C., 10 minutes
T1 construct: membrane fractions prepared from the brain a Wistarstrain male rat; from tissue; host or cells: rat brain striatum (Wistar, male), membrane fraction
T1 sequence (P61169 whole entry): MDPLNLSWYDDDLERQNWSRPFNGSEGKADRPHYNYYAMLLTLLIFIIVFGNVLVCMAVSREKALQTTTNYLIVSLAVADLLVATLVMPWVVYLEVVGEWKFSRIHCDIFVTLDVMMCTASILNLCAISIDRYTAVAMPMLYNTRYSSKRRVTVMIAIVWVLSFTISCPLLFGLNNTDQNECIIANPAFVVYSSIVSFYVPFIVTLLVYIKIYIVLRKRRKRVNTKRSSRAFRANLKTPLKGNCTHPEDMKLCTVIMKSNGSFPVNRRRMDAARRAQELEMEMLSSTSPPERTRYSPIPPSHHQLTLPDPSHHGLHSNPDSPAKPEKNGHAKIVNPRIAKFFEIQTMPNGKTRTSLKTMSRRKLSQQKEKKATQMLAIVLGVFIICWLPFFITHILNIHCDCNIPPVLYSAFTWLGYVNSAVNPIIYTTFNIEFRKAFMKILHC
Protocol: (§1) Striatal membranes fractions were prepared from a rat brain, and the affinity of the compounds of this invention on dopamine 2 receptors was determined by using [^3 H] spiperone assay from membranes fractions as an index. Moreover, frontal cortex membranes were prepared from a rat brain, and the affinity of the test drugs on serotonine 2 receptor was determined by using [^3 H] ketenserin binding assay. It was shown that the compounds of general formula (1) of the invention have marked anti-dopamine activity and anti-serotonine activity.
[^3 H]spiperone binding assay
The affinity of the compounds of this invention to the dopamine 2 receptor was determined on the basis of the ability to substitute [^3 H] spiperone from stratal membrane fractions prepared from the brain a Wistarstrain male rat.
(§2) The rat was decapitated, and the brain was obtained. The striatum was homogenized in 40 volumes of 50 mM Tris-HCl buffer (pH 7.6), and then centrifuged. The pellets were again homogenized in 50 volumes of the same buffer, and used in a binding test. The binding test was conducted by the following procedure.
(§3) The stria (original tissue weight 20 mg/ml), 100 microliters of a test drug and 0.5 nM of [^3 H] spiperone were incubated at 37° C. for 10 minutes in 50 mM Tris-HCl buffer (pH 7.6). Then, the reaction mixture was suction-filtered through a glass fiber filter (Watmann GF/B) and washed with a buffer three times.
(§4) The filter was put in a scintillation cocktail (ACSII, Amersham Co.), and after mixing, left to stand overnight. The radioactivity held on the filter was measured by a liquid scintillation counter. The nonspecific binding was measured in the presence of 1 μM of (+) butaclamol. The concentration of the test drug which inhibited 50% of a specific binding was determined from the graph and defined as IC50. Ki was calculated from the following equation. [formula]

serotonine 2 receptor = target: T2, serotonine 2 receptor (Rattus norvegicus, UniProt P14842); experiment: [3H]ketanserin binding assay (affinity for serotonine 2 receptor); parameters: species or system Wistar male rat; conditions: rat frontal cortex, 1 nM [3H] ketanserin, 37° C., 10 minutes
T2 construct: frontal cortex fraction prepared from the brain of a Wistar male rat; from tissue; host or cells: rat brain frontal cortex (Wistar, male), membrane fraction
T2 sequence (P14842 whole entry): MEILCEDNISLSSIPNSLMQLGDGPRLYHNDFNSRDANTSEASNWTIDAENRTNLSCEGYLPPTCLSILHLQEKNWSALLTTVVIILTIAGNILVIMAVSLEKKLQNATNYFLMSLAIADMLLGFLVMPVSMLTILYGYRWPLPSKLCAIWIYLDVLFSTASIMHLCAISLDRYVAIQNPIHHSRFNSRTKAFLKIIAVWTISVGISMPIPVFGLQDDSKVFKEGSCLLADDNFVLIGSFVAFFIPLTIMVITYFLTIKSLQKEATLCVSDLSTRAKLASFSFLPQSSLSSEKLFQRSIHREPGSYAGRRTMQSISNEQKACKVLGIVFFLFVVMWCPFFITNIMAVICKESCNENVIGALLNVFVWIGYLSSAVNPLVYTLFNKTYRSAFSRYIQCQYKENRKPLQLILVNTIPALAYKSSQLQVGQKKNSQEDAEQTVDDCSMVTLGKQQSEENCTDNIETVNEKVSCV
Protocol: as §1
[^3 H] ketanserin binding assay
The affinity of the compound of the invention was determined on the basis of the ability to substitute [^3 H] ketanserin from a frontal cortex fraction prepared from the brain of a Wistar male rat.
as §2, with “The frontal cortex” for “The striatum”, “in 100” for “in 50”
as §3, with “frontal cortex” for “stria”, “1” for “20”, “1” for “0.5”, “ketanserin” for “spiperone”
as §4, with “methysergide.” for “(+) butaclamol.”, “IC5.” for “IC50.”

in vivo = conditions: mouse, in vivo
Protocol: By using male ddY-strain 5-week old mice (3 to 4 per group), the compounds of general formula (1) were each administered orally or intraperitoneally as a solution in saline or as a suspension in methyl cellulose, and 24 hours after the administration, the toxicity of the compounds was evaluated.

[1] = tested on: right ventricle (effective refractory period); experiment: Activity on ERP of the right ventricle; assay type: in vivo, adult mongrel dog; conditions: Canis lupus familiaris, ERP before drug = 100%, read-out: ERP % (ERP prolonging activity)
Protocol: The pharmacological effects of the compounds of this invention represented by general formula (1) were studied. By using the heart of an adult mongrel dog, the activity of the compounds of general formula (1) were tested in vitro and in vivo. The heart of an anaethetized dog was extracted and suspended in a chamber at 37° C. in Tyrode's solution. The drug was added to Tyrode's solution being perfused through the heart specimen, and electrophysiological effects of the drug on cardiac action potential duration (APD) and maximum rate of depolarization were studied. An anaethetized dog was cut open at the chest. […] In an anaethetized and open-chested adult mongrel dug, a silver-silver chloride electrode was sutured to the right ventricle, and ventricular pacing was performed at a stimulation interval of 400 msec for a duration time of 4 msec, twice diastolic threshold. Then, a small amount of alcohol was injected through the sinus artery to extinguish the pacemaker activity, and under ventricular pacing, ERP was measured. Ten stimulations were taken as one train, and the interval between trains when the response to the first stimulation disappeared was defined as ERP. […] ERP before drug administration (intravenously or intraduodenally) was taken as 100%, and ERP prolonging activity of the drugs was expressed by %.

Purkinje fiber = experiment: Effect on APD (APD75, field-stimulated right ventricular free wall); assay type: cell-based, adult mongrel dog; conditions: 20 minutes incubation, 37° C., 1 Hz, control before drug = 100%; for activation at 3 µg/mL / activation at 1 µg/mL / activation at 10 µg/mL: Canis lupus familiaris, purkinje, 20 min, read-out: APD75 % (percent change in APD75); for activation at 10 µg/mL: dose 10 μg/ml
Protocol: The pharmacological effects of the compounds of this invention represented by general formula (1) were studied. By using the heart of an adult mongrel dog, the activity of the compounds of general formula (1) were tested in vitro and in vivo. The heart of an anaethetized dog was extracted and suspended in a chamber at 37° C. in Tyrode's solution. The drug was added to Tyrode's solution being perfused through the heart specimen, and electrophysiological effects of the drug on cardiac action potential duration (APD) and maximum rate of depolarization were studied. An anaethetized dog was cut open at the chest.
An adult mongrel dog was anaethetized with intravenous administration of pentobarbital, 30 mg/kg. The heart was quickly removed, and the right ventricular free wall was dissected in the Tyrode's solution. The right ventricular free wall was fixed within an incubator at 37° C., and field stimulation at 1 Hz was carried out. Intracellular potentials were measured by piercing glass microelectrodes (10-20 megaohms) into the Purkinje fiber and the wave form of cardiac action potential drawn on an oscilloBraun tube via an amplifier was analyzed by a computer. Value of APD was obtained at 75% of full repolarization (APD75). The drug was added to Tyrode's solution (20 ml) perfused through the specimen. The effect of the drug was expressed by a percent change in APD75 after incubation for 20 minutes with the control value of APD before application of the drug being taken as 100%.

atrial fibrillation = experiment: Atrial fibrillation model; assay type: in vivo, mongrel dog; conditions: dose of 0.3 to 3 mg/kg or 1 to 10 mg/kg
From the text: Furthermore, the anaethetized dog was cut open at the chest. Bipolar electrodes were sutured to the right atrial surface, and stimulation electrodes were attached to the vagus nerves at both sides of the cervical region. Atrial fibrillation was induced by the method of Goldberger et al. A. L. Goldberger et al.: […] Further, the anaethetized dog was cut open at the chest. Left anterior descending coronary artery was ligated, and ninety minutes later, reperfused to prepare a myocardial infarction which was liable to develop tachycardia. At that time, a bipolar plunge electrode was placed in the interventricular septum near the ligated site. Several days after the operation, programmed electrical stimulation was applied to induce tachycardia. The effect of the drug to cause disappear of tachycardia was examined. In an anaethetized and open-chested mongrel dog, bipolar electrodes (silver and silver-silver chloride electrodes) were sutured respectively to the right atrium for stimulation and recording. The vagus nerves on both sides of the cervical region were isolated and cut, and stimulation electrodes were attached to the peripheral end. The atrial fibrillation was induced in accordance with the method of Goldberger et al. After cardiac arrest induced by stimulating the vagus nerves, electrical stimulation was applied to the right atria at a high frequency.

[2] = po, LD50 p.o., p.o., 24 hours after administration, male ddY mice

| Compound | Ki (dopamine 2 receptor) | Ki (serotonine 2 receptor) | further results |
| --- | --- | --- | --- |
| O=C1COc2cc(OCCCN3CCN(Cc4ccccc4)CC3)ccc21 [Compound 1182] | > 400 nM | > 600 nM | – |
| O=c1cc(-c2ccccc2)c2ccc(OCCCN3CCC(Cc4ccccc4)CC3)cc2o1 [Compound 1330] | > 400 nM | > 600 nM | – |
| CS(=O)(=O)NC1CCN(CCCOc2ccc3c(c2)OCC3=O)CC1 [Compound 1286] | > 400 nM | 475 nM | LD50 at 24 h (in vivo; [2]): > 300 mg/kg; change in vivo at 0.1 mg/kg ([1]; iv, 0.1 mg/kg i.v.): 8.3%; change in vivo at 0.3 mg/kg ([1]; iv, 0.3 mg/kg i.v.): 8.3%; change in vivo at 1 mg/kg ([1]; iv, 1 mg/kg i.v.): 16.6%; change in vivo at 3 mg/kg ([1]; iv, 3 mg/kg i.v.): 16.6%; activation at 3 µg/mL (Purkinje fiber; dose 3 μg/ml): 7% |
| CN1CCN(CCCOc2ccc3c(c2)OCC3=O)CC1 [Compound 1178] | > 400 nM | > 600 nM | – |
| CCCCCCCN(CC)CCCOc1ccc2c(c1)OCC2=O.Cl [Compound 102, 6-3-(N-ethyl-N-heptylamino)propyloxycoumaran-3-one hydrochloride] | – | – | LD50 at 24 h (in vivo; ip, LD50 i.p., i.p., 24 hours after administration, male ddY mice): ~100 mg/kg; LD50 at 24 h (in vivo; [2]): ~300 mg/kg; disappearance of atrial fibrillation (atrial fibrillation): could cause disappearance fibrillation; change in vivo at 0.1 mg/kg ([1]; iv, 0.1 mg/kg i.v.): 11.7 ± 3.2%; change in vivo at 0.3 mg/kg ([1]; iv, 0.3 mg/kg i.v.): 21.3 ± 3.3%; change in vivo at 1 mg/kg ([1]; iv, 1 mg/kg i.v.): 23.3 ± 2.9%; change in vivo at 0.1 mg/kg ([1]; 0.1 mg/kg i.d.): 0%; change in vivo at 0.3 mg/kg ([1]; 0.3 mg/kg i.d.): 13%; change in vivo at 1 mg/kg ([1]; 1 mg/kg i.d.): 27%; APD75 % (percent change in APD75) (Purkinje fiber; dose 1 μg/ml): 20%; APD75 % (percent change in APD75) (Purkinje fiber; dose 3 μg/ml): 30% |
| O=C1COc2cc(OCCCN3CCC(O)(c4ccccc4)CC3)ccc21 [Compound 1150] | > 400 nM | 306 nM | LD50 at 24 h (in vivo; po): > 300 mg/kg; activation at 1 µg/mL (Purkinje fiber; dose 1 μg/ml): 4%; activation at 3 µg/mL (Purkinje fiber; dose 3 μg/ml): 12%; activation at 10 µg/mL (Purkinje fiber): 14% |
| O=C1COc2cc(OCCCN(Cc3ccccc3)Cc3ccccc3)ccc21 [Compound 176] | > 400 nM | > 600 nM | – |
| O=C1COc2cc(OCCCN3CCN(c4ccccn4)CC3)ccc21 [Compound 1264] | > 400 nM | > 600 nM | – |
| CN1C(=O)Cc2cnc(N3CCN(CCCOc4ccc5c(c4)OCC5=O)CC3)nc21 [Compound 1186] | > 400 nM | 315 nM | – |
| CCCCN(CCCC)CCCOc1ccc2c(c1)OCC2=O [Compound 144] | – | – | disappearance of atrial fibrillation (atrial fibrillation): could cause disappearance fibrillation; change in vivo at 0.1 mg/kg ([1]; iv, 0.1 mg/kg i.v.): 10 ± 1.7%; change in vivo at 0.3 mg/kg ([1]; iv, 0.3 mg/kg i.v.): 15.5 ± 4.9%; change in vivo at 1 mg/kg ([1]; iv, 1 mg/kg i.v.): 21.1 ± 6.2%; activation at 1 µg/mL (Purkinje fiber; dose 1 μg/ml): 13%; activation at 3 µg/mL (Purkinje fiber; dose 3 μg/ml): 26%; activation at 10 µg/mL (Purkinje fiber): 33% |
| O=C1COc2cc(OCCCN3CCC4(CC3)OCCO4)ccc21 [Compound 1298] | > 400 nM | 382 nM | LD50 at 24 h (in vivo; [2]): > 300 mg/kg |
| CC(=O)Oc1coc2cc(OCCCN3CCC(Cc4ccccc4)CC3)ccc12 [Compound 1344] | > 400 nM | > 600 nM | – |
| O=C1COc2cc(OCCCN3CCC(O)(c4ccc(Cl)cc4)CC3)ccc21 [Compound 1154] | > 400 nM | > 298 nM | – |
| O=C1COc2cc(OCCCN3CCc4ccccc4C3)ccc21 [Compound 1162] | > 400 nM | > 600 nM | – |
| O=C1COc2cc(OCCCN3CCC4(CC3)C(=O)NCN4c3ccccc3)ccc21 [Compound 1246] | > 400 nM | > 600 nM | – |
| O=C1COc2cc(OCCCN3CCC(c4ccccc4)CC3)ccc21 [Compound 1138] | 329 nM | 173 nM | – |
| O=C1COc2cc(OCCCN3CCC(N4CCCCC4)CC3)ccc21 [Compound 1228] | > 400 nM | > 600 nM | – |
| O=C1NC(=O)c2cc(OCCCN3CCC(Cc4ccccc4)CC3)ccc21 [Compound 1334] | > 400 nM | 227 nM | – |
